Source: PubChem BioAssay (NCI)
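The compound was tested at five concentrations on cells cultured in 96-well plates, with a 48-hour exposure period. At the TGI there is no net growth.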

Columns and labels:
Test in all cases: DTP human tumour cell line panel, 48 h
[1] = tested on: COLO 205 colon
[2] = tested on: ACHN renal
[3] = tested on: SF-268 CNS
[4] = tested on: HOP-62 NSCLC
[5] = tested on: UACC-257 melanoma
[6] = tested on: IGROV1 ovarian
[7] = tested on: SNB-19 CNS
[8] = tested on: NCI-H460 lung
[9] = tested on: CCRF-CEM leukemia
[10] = tested on: U251 CNS
[11] = tested on: HOP-92 NSCLC
[12] = tested on: SF-539 CNS
[13] = tested on: EKVX NSCLC
[14] = tested on: HT29 colon
[15] = tested on: SR leukemia
[16] = tested on: CAKI-1 renal
[17] = tested on: M14 melanoma
[18] = tested on: SK-MEL-2 melanoma
[19] = tested on: OVCAR-8 ovarian
[20] = tested on: OVCAR-5 ovarian
[21] = tested on: RPMI-8226 leukemia
[22] = tested on: TK-10 renal
[23] = tested on: SF-295 CNS
[24] = tested on: SK-OV-3 ovarian
[25] = tested on: XF 498 CNS
[26] = tested on: SK-MEL-5 melanoma
[27] = tested on: DMS 114 small cell lung
[28] = tested on: OVCAR-4 ovarian
[29] = tested on: NCI-H23 lung
[30] = tested on: KM12 colon
[31] = tested on: HCT-116 colon
[32] = tested on: SW-620 colon
[33] = tested on: LOX IMVI melanoma
[34] = tested on: SNB-75 CNS
[35] = tested on: UO-31 renal
[36] = tested on: LXFL 529 NSCLC
[37] = tested on: KM20L2 colon
[38] = tested on: SNB-78 CNS
[39] = tested on: HCC-2998 colon
[40] = tested on: SK-MEL-28 melanoma
[41] = tested on: NCI-H522 lung
[42] = tested on: OVCAR-3 ovarian
[43] = tested on: MALME-3M melanoma
[44] = tested on: HCT-15 colon
[45] = tested on: 786-0 renal
[46] = tested on: UACC-62 melanoma
[47] = tested on: K-562 leukemia
[48] = tested on: RXF 393 renal
[49] = tested on: NCI-H226 lung
[50] = tested on: DLD-1 colon
[51] = tested on: A549 NSCLC
[52] = tested on: M19-MEL melanoma
[53] = tested on: SN12C renal
[54] = tested on: HL-60(TB) leukemia
[55] = tested on: DMS 273 small cell lung
[56] = tested on: HOP-18 NSCLC
[57] = tested on: MOLT-4 leukemia

COc1cc(C[P+](c2ccccc2)(c2ccccc2)c2ccccc2)cc(OC)c1OC was tested, and the TGI [1] was > 100 µM, the TGI [2] was > 100 µM and the TGI [3] was > 100 µM. For the same molecule, the TGI [4] was > 100 µM, the TGI [5] was > 100 µM and the TGI [6] was > 100 µM. The TGI [7] was > 100 µM, the TGI [8] was > 100 µM and the TGI [9] was > 100 µM. The TGI [10] was > 100 µM, the TGI [11] was > 100 µM and the TGI [12] was > 100 µM. The TGI [13] was > 100 µM, the TGI [14] was > 100 µM and the TGI [15] was > 100 µM. For the same molecule, the TGI [16] was > 100 µM, the TGI [17] was > 100 µM and the TGI [18] was > 100 µM. The TGI [19] was > 100 µM, the TGI [20] was > 100 µM and the TGI [21] was > 100 µM. For the same molecule, the TGI [22] was > 100 µM, the TGI [23] was > 100 µM and the TGI [24] was > 100 µM. For the same molecule, the TGI [25] was > 100 µM, the TGI [26] was > 100 µM and the TGI [27] was > 100 µM. For the same molecule, the TGI [28] was > 100 µM, the TGI [29] was > 100 µM and the TGI [30] was > 100 µM. For the same molecule, the TGI [31] was > 100 µM, the TGI [32] was > 100 µM and the TGI [33] was > 100 µM. The TGI [34] was > 100 µM, the TGI [35] was > 100 µM and the TGI [36] was > 100 µM. For the same molecule, the TGI [37] was > 100 µM, the TGI [38] was > 100 µM and the TGI [39] was > 100 µM. For the same molecule, the TGI [40] was > 100 µM, the TGI [41] was > 100 µM and the TGI [42] was > 100 µM. For the same molecule, the TGI [43] was > 100 µM, the TGI [44] was > 100 µM and the TGI [45] was > 100 µM. For the same molecule, the TGI [46] was > 100 µM, the TGI [47] was > 100 µM and the TGI [48] was > 100 µM. The TGI [49] was > 100 µM, the TGI [50] was > 100 µM and the TGI [51] was > 100 µM. The TGI [52] was > 100 µM, the TGI [53] was > 100 µM and the TGI [54] was > 100 µM. The TGI [55] was > 100 µM.

FC(F)(F)c1ccc2nc(NCc3ccccc3)c(-c3ccccc3)nc2c1 was tested, and the TGI [1] was > 100 µM, the TGI [2] was > 100 µM and the TGI [3] was > 100 µM. For the same molecule, the TGI [4] was > 100 µM, the TGI [5] was > 100 µM and the TGI [7] was > 100 µM. For the same molecule, the TGI [56] was > 100 µM, the TGI [8] was > 100 µM and the TGI [9] was > 100 µM. For the same molecule, the TGI [10] was 86.8 µM, the TGI [11] was 17.9 µM and the TGI [12] was > 100 µM. The TGI [13] was > 100 µM, the TGI [14] was > 100 µM and the TGI [15] was 80.8 µM. The TGI [18] was > 100 µM, the TGI [19] was > 100 µM and the TGI [20] was > 100 µM. The TGI [21] was 98.9 µM, the TGI [22] was > 100 µM and the TGI [23] was > 100 µM. The TGI [24] was > 100 µM, the TGI [25] was 43.5 µM and the TGI [29] was > 100 µM. For the same molecule, the TGI [57] was 72.5 µM, the TGI [31] was > 100 µM and the TGI [32] was > 100 µM. The TGI [33] was 52.7 µM, the TGI [34] was > 100 µM and the TGI [35] was 92.9 µM. For the same molecule, the TGI [36] was > 100 µM, the TGI [37] was > 100 µM and the TGI [38] was > 100 µM. For the same molecule, the TGI [39] was > 100 µM, the TGI [40] was > 100 µM and the TGI [42] was > 100 µM. The TGI [43] was > 100 µM, the TGI [44] was > 100 µM and the TGI [45] was 53.1 µM. The TGI [46] was > 100 µM, the TGI [48] was 71.5 µM and the TGI [49] was > 100 µM. The TGI [51] was > 100 µM, the TGI [52] was > 100 µM and the TGI [53] was > 100 µM. The TGI [54] was 48.9 µM and the TGI [55] was > 100 µM.
